Data on 2 compounds can be found in patent US8784818B2, “Anti-VEGFR-3 antibody compositions” (ImClone LLC, priority 2010, dated 2014).

One experiment deals with NCI-H292 tumor. Briefly: NCI-H292 lung cancer xenograft model. Format: in vivo, mice. As to conditions: versus control group; Antibody 2 40 mg/kg 3 times per week i.p.; Docetaxel 12 mg/kg q7d; through Day 26. The procedure:
In order to test for activity of anti-VEGFR-3 antibodies in lung cancer, the NCI-H292 xenograft model is used. Nu/nu mice (female, 7-8 weeks of age) are injected subcutaneously with 2×10^6 NCI-H292 cells/mouse. When tumors reach approximately 300 mm^3, mice are randomized by tumor size into the following treatment groups (n=15): 1) USP saline at 10 μl/g, 3 times per week, i.p., starting on day 2. 2) Antibody 2 at 40 mg/kg, 3 times per week, i.p., starting day 2. 3) Docetaxel at 12 mg/kg, q7d, starting day 1. 4) Docetaxel at 12 mg/kg, q7d, starting day 1 plus Antibody 2 at 40 mg/kg, 3 times per week, starting day 2.
Tumor volumes are measured approximately twice a week and body weights are recorded at least twice a week for the duration of the study. At sacrifice, mice are euthanized by CO2 asphyxiation. The T/C % is calculated for each treatment group as the ratio of the relative tumor volume in the experimental groups versus the control group. Tumor growth and body weights are compared to the control group by repeated measures ANOVA through Day 26.

A further experiment deals with CAL27 tumors. The experiment in a line: CAL27 squamous cell carcinoma xenograft model. The conditions noted are these: versus USP saline; Antibody 2 40 mg/kg 3 days per week; cisplatin 7 mg/kg q7d; through Day 61. Format: in vivo, mice. As for the experimental part: In order to test for activity of anti-VEGFR-3 antibodies in head and neck cancer, the CAL27 xenograft model is used. CAL27 cell suspension, at 1×10^7 cells/mouse, is injected s.c. into the left flank of 60 female athymic mice. When tumors reach ˜180 mm^3, eight days after cell implantation, the mice are randomized and divided into four treatment groups (n=12): 1.) USP saline control, 0.5 ml i.p., 3 days per week 2.) Antibody 2 at 40 mg/kg, 3 days per week 3.) cisplatin at 7 mg/kg, q7d 4.) Antibody 2 at 40 mg/kg, 3 days per week+cisplatin at 7 mg/kg, q7d.
Tumor measurements are recorded twice weekly; RM ANOVA through Day 61 is used to compare tumor growth among the treatment groups. Chi Squared tests are used to test for statistical significance in the number of tumor regressions among the treatment groups.

`CC(=O)O[C@@]12CO[C@@H]1C[C@H](O)[C@@]1(C)C(=O)[C@H](O)C3=C(C)[C@@H](OC(=O)[C@H](O)[C@@H](NC(=O)OC(C)(C)C)c4ccccc4)C[C@@](O)([C@@H](OC(=O)c4ccccc4)[C@H]21)C3(C)C` [Docetaxel] showed a T/C % in the experiment on NCI-H292 tumor of 49%.
On to `N.N.[Cl][Pt][Cl]` [cisplatin], for which the T/C % with CAL27 tumors amounted to 39%.
